# Patent publication US20210137960A1, “COMPOSITIONS AND METHODS FOR INHIBITION OF NUCLEAR-PENETRATING ANTIBODIES” (Yale University, priority 2018, published 2021)
# Like-named read-outs stand apart in the source and are kept apart here.
# Experiments:
# MCF7 breast cancer cells = experiment: Uptake of rhodamine-labeled variant 13 in live cells, light and fluorescence microscopy, MCF7; assay type: cell-based; conditions: 50 μM ivermectin
# Protocol: Live MCF7 breast cancer cells were treated with control or rhodamine-labeled variant 13 (Rh-variant 13)+/−50 μM ivermectin and were then visualized under light and fluorescence microscopy.
# A549 lung cancer cells = experiment: Protein L immunodetection of variant 13 nuclear penetration with importin pathway inhibitors, A549; assay type: cell-based; conditions: 10 μM variant 13 co-incubated with 0, 10, 25, or 50 μM inhibitor
# Protocol: (§1) For all experiments, cells were cultivated overnight to allow for attachment, followed by pretreatment with either control medium (absence of inhibitor), or medium containing inhibitor for durations previously-reported in the literature (see Table 5, below).
# (§2) For endocytosis inhibition experiments, cells were cultivated in serum-free medium containing 1% v/v BSA to deplete endogenous serum levels. Following preincubation with inhibitors, cells were treated with either control medium or 10 μM variant 13, and the same dose of small molecule inhibitor for a further 30 minutes. For all experiments, cells were washed thrice, followed by immediate fixation with pre-chilled ice-cold ethanol. Subsequently, treated cells were probed using a protein L immunodetection approach to probe variant 13 nuclear uptake (Rattray et al., Biochem Biophys Res Commun 496, 858-864 (2018)). All monolayers were immediately imaged following color development on an Evos Fl microscope.
# (§3) DLD-1 and A549 cells were treated with 10 μM variant 13 co-incubated with 0, 10, 25, or 50 μM concentrations of ivermectin. Relative intensity of protein L nuclear staining as compared to amount of stain in cells treated without ivermectin was also quantified by ImageJ.
# (§4) DLD-1 cells and A549 cells were treated with 10 μM variant 13 co-incubated with 0, 10, 25, or 50 μM concentrations of importazole and then immunostained for protein L.
# (§5) DLD-1 cells and A549 cells were treated with 10 μM variant 13 co-incubated with 0, 10, 25, or 50 μM concentrations of mifepristone and then immunostained for protein L.
# DLD1 colon cancer cells = experiment: Protein L immunodetection of variant 13 nuclear penetration with importin pathway inhibitors, DLD1; assay type: cell-based; conditions: 10 μM variant 13 co-incubated with 0, 10, 25, or 50 μM inhibitor
# Protocol: as §1, §2, §3, §4, §5
# DLD1 cells [1] = experiment: Nuclear penetration of scleroderma autoantibody SSC and effect of ivermectin, microscopic analysis; assay type: cell-based
# Excerpt: In addition to SLE, cell-penetrating autoantibodies are detected in other autoimmune diseases such as scleroderma. […] SSC was expressed in and purified from HEK293T cells.
# DLD1 cells [2] = experiment: SLE sera nuclear import with nuclear import inhibitors, anti-human IgG immunostain; assay type: cell-based; conditions: for effect on nuclear uptake of ANAs in SLE-19: SLE-19 serum
# Protocol: DLD1 cells were pre-treated with either control media, or media containing nuclear import inhibitors for four hours. Subsequent co-treatment with inhibitor and patient SLE serum (diluted 1:50) was performed for one hour at 37° C. Following treatment, cells were fixed, blocked and probed with an alkaline-phosphatase anti-human IgG […] antibody overnight (Fisher Scientific). Cell monolayers were washed, and color developed using NBT/BCIP reagent (Fisher Scientific) for the same duration across all experiments. Following chromogen color development, all monolayers were washed, and brightfield images acquired immediately on an Evos F microscope.
# DLD1 cancer cells = experiment: Uptake of rhodamine-labeled variant 13 in live cells, light and fluorescence microscopy, DLD1; assay type: cell-based; conditions: 50 μM importazole
# Protocol: Live DLD1 cancer cells were treated with control or rhodamine-labeled variant 13 (Rh-variant 13)+/−50 μM importazole and were then visualized under light and fluorescence microscopy.
# cell nuclei [3] = conditions: known anti-dsDNA autoantibodies; cited from earlier work
# cell nuclei [4] = experiment: Nuclear penetration of humanized 3E10 variants compared with original 3E10 (D31N) di-scFv; assay type: cell-based; conditions: for Nuclear localizing?: humanized 3E10 variants; for nuclear penetration compared to the prototype: vs original 3E10 (D31N) di-scFv
# Excerpt: A range of humanized 3E10 variants were generated with subtle differences in framework and CDR sequences.
Molecule,effect on nuclear penetration by variant 13 (A549 lung cancer cells),effect on nuclear penetration by variant 13 (DLD1 colon cancer cells),effect on nuclear uptake of ANAs in SLE-19 (DLD1 cells [2]),Nuclear localizing? (cell nuclei [4]),nuclear penetration compared to the prototype (cell nuclei [4]),further results
"22,23-dihydroavermectin B1a/B1b [ivermectin]",dose-dependent reduction in nuclear penetration,dose-dependent reduction in nuclear penetration,–,–,–,"effect on cellular/nuclear uptake of rhodamine-labeled variant 13 (MCF7 breast cancer cells): inhibited cellular/nuclear uptake; effect on nuclear uptake of SSC (DLD1 cells [1]): inhibited the nuclear uptake of SSC; effect on nuclear staining by ANAs in SLE sera (DLD1 cells [2]; SLE-4, 8, 9, and 19 serum diluted 1:50, pre- and co-treatment): reduced the nuclear staining associated with each sample"
"CC(Nc1nc(N2CCCC2)nc2ccccc12)c1ccccc1 (centres unmarked) [importazole, N-(1-phenylethyl)-2-pyrrolidin-1-ylquinazolin-4-amine]",reduction in nuclear penetration,reduction in nuclear penetration,inhibit nuclear uptake of ANAs in SLE-19 in a dose-dependent manner,–,–,effect on nuclear uptake of rhodamine-labeled variant 13 (DLD1 cancer cells): inhibited nuclear uptake
"CC#C[C@]1(O)CC[C@H]2[C@@H]3CCC4=CC(=O)CCC4=C3[C@@H](c3ccc(N(C)C)cc3)C[C@@]21C [mifepristone, 11β-(4-Dimethylamino)phenyl-170-hydroxy-17-(1-propynyl)-estra-4,9-dien-3-one]",reduction in nuclear penetration,reduction in nuclear penetration,inhibit nuclear uptake of ANAs in SLE-19 in a dose-dependent manner,–,–,–
"5C6: monoclonal anti-DNA antibody with nucleolytic activity from MRL/lpr lupus mouse model hybridoma (antibody, listed as Mus musculus, V domains shown) VL: DIVLTQSPASLAAVSLGERATISYRASKSVSTSGYSYMHWNQQKPGQAPRLLIYLVSNLESGVPARFSGSGSGTDFTLNIHPVEEEDAATYYCQHIRELDTFFGGGTKLEIK VH: QLKLVESGGGLVKPGGSLKLSCAASGFTFSSYTMSWVRQTPAKRLEWVATISSGGGSTYYPDSVKGRFTISRDNARNTLYLQMSSLRSEDTAMYYCARRAYSKRGAMDYWGQGTSVTVSS",–,–,–,–,–,Nuclear localizing? (cell nuclei [3]): Yes
"variant 10: humanized 3E10 variant, SEQ ID NOS:14, 22, and 32 (protein) chain 1: EVQLVESGGGLVQPGGSLRLSCAASGFTFSNYGMHWVRQAPGKGLEWVSYISSSSSTIYYADSVKGRFTISRDNAKNSLYLQMNSLRAEDTAVYYCARRGLLLDYWGQGTTVTVSS chain 2: DIQMTQSPSSLSASVGDRVTITCRASKSVSTSSYSYMHWYQQKPGKAPKLLIKYASYLESGVPSRFSGSGSGTDFTLTISSLQPEDFATYYCQHSREFPWTFGQGTKVEIK chain 3: DIQMTQSPSSLSASVGDRVTITCRASKSVSTSSYSYMHWYQQKPGKAPKLLIKYASYLESGVPSRFSGSGSGTDFTLTISSLQPEDFATYYCQHSREFPWTFGQGTKVEIKRADAAPGGGGSGGGGSGGGGSEVQLVESGGGLVQPGGSLRLSCAASGFTFSNYGMHWVRQAPGKGLEWVSYISSSSSTIYYADSVKGRFTISRDNAKNSLYLQMNSLRAEDTAVYYCARRGLLLDYWGQGTTVTVSSASTKGPSVFPLAPLESSGSDIQMTQSPSSLSASVGDRVTITCRASKSVSTSSYSYMHWYQQKPGKAPKLLIKYASYLESGVPSRFSGSGSGTDFTLTISSLQPEDFATYYCQHSREFPWTFGQGTKVEIKRADAAPGGGGSGGGGSGGGGSEVQLVESGGGLVQPGGSLRLSCAASGFTFSNYGMHWVRQAPGKGLEWVSYISSSSSTIYYADSVKGRFTISRDNAKNSLYLQMNSLRAEDTAVYYCARRGLLLDYWGQGTTVTVSS",–,–,–,Yes,penetrated nuclei very well,–
"variant 13: humanized 3E10 variant, SEQ ID NOS:17, 23, and 35, expressed in a CHO cell system (protein) chain 1: EVQLVESGGGLVQPGGSLRLSCAASGFTFSNYGMHWVRQAPGKGLEWVSYISSGSSTIYYADSVKGRFTISRDNAKNSLYLQMNSLRAEDTAVYYCARRGLLLDYWGQGTTVTVSS chain 2: DIQMTQSPSSLSASLGDRATITCRASKTVSTSSYSYMHWYQQKPGQPPKLLIKYASYLESGVPSRFSGSGSGTDFTLTISSLQPEDAATYYCQHSREFPWTFGGGTKVEIK chain 3: DIQMTQSPSSLSASLGDRATITCRASKTVSTSSYSYMHWYQQKPGQPPKLLIKYASYLESGVPSRFSGSGSGTDFTLTISSLQPEDAATYYCQHSREFPWTFGGGTKVEIKRADAAPGGGGSGGGGSGGGGSEVQLVESGGGLVQPGGSLRLSCAASGFTFSNYGMHWVRQAPGKGLEWVSYISSGSSTIYYADSVKGRFTISRDNAKNSLYLQMNSLRAEDTAVYYCARRGLLLDYWGQGTTVTVSSASTKGPSVFPLAPLESSGSDIQMTQSPSSLSASLGDRATITCRASKTVSTSSYSYMHWYQQKPGQPPKLLIKYASYLESGVPSRFSGSGSGTDFTLTISSLQPEDAATYYCQHSREFPWTFGGGTKVEIKRADAAPGGGGSGGGGSGGGGSEVQLVESGGGLVQPGGSLRLSCAASGFTFSNYGMHWVRQAPGKGLEWVSYISSGSSTIYYADSVKGRFTISRDNAKNSLYLQMNSLRAEDTAVYYCARRGLLLDYWGQGTTVTVSS",–,–,–,Yes,penetrated nuclei very well,–
